{"source": "patent US7897401B2", "about": "“Control of apoptosis by controlling the propensity of ceramide channel formation” (University of Maryland, College Park, priority 2005, dated 2011)", "format_in_all_cases": "biochemical", "key": {"[1]": {"test_system": "ceramide channel in planar phospholipid membrane", "test": "Electrophysiological recordings on planar phospholipid membranes", "excerpt": "Planar phospholipid membranes were produced by the monolayer method (Montal, M. et al. (1972) “FORMATION OF BIMOLECULAR MEMBRANES FROM LIPID MONOLAYERs AND A STUDY OF THEIR ELECTRICAL PROPERTIES,” Proc. Natl. Acad. Sci. USA 69:3561-3566) as modified by Colombini, M. (1987) (“CHARACTERIZATION OF CHANNELS ISOLATED FROM PLANT MITOCHONDRIA,” Methods Enzymol. 148:465-475), across a 100-μm-diameter hole in a Saran partition. Monolayers were produced using a solution of 0.5% w/v asolectin, 0.5% w/v DiPhyPC, 0.1% w/v cholesterol in hexane. This technique produces solvent-free phospholipid membranes whose lipid composition (focusing on the polar head-groups) is similar to that found in the mitochondrial outer membrane. It differs from the natural membrane in lacking proteins.\nThe aqueous solutions contained 1 mM MgCl2, and 5 mM Pipes pH 6.8 with KCl varying from 0.10 M to 1.0 M. The KCl concentration on one side of the membrane, referred to as the “trans” side, was always 0.10 M, whereas the other side (the “cis” side) was adjusted as needed. The transmembrane voltage was electronically clamped and the current through the membrane was recorded. The voltage values indicated are the voltage differences across the membrane cis side minus trans side.\nC2-ceramide was stirred into the aqueous solution on each side of the membrane from a solution in DMSO, generally 0.5 mg/ml. Single or multiple additions, typically […] each, yielding a final concentration of 2 μg/ml, were made to achieve a desired level of conductance. Sphingosine additions of 5 μl were made from a solution in DMSO (4 mg/mL) yielding a final concentration of 4 μg/mL.\nThe observation that anti-apoptotic Bcl-2 family proteins inhibit ceramide channel formation in isolated yeast and rat liver mitochondria correlates with previous reports showing inhibition of ceramide-induced apoptosis in whole cells by these proteins. Thus the results directly tie ceramide-induced mitochondrial-mediated apoptosis with the Bcl-2 family of proteins known to regulate these events. To address whether the antiapoptotic proteins act directly on ceramide channels or work by an indirect action, their affects on ceramide channels in solvent-free planar phospholipid membranes was tested. This is a defined system free of other proteins. When C16-ceramide is added to the aqueous solution bathing one side of a planar phospholipid membrane, it results in discontinuous increases in conductance under voltage-clamp conditions, the defining characteristic of channel formation in membranes. These conductance increments are the enlargement of one ceramide channel rather than the formation of multiple ceramide channels in parallel (Siskind, L. J. et al. (2003) “ENLARGEMENT AND CONTRACTURE OF C2-CERAMIDE CHANNELS,” Biophys. J. 85:1560-1575). […]"}, "[2]": {"test": "Protein (cytochrome c) release and metabolism of sphingosine in isolated mitochondria", "conditions": "compound alone, maximum"}, "[3]": {"test_system": "ceramide channels in liposomes", "test": "Liposome carboxyfluorescein release (ceramide channel formation in liposomes)", "conditions": "C16-ceramide 80 μg, liposomes 90 μg lipid", "experimental": "The polar extract of soybean phospholipids (Avanti Polar Lipids, Alabaster, Ala.) and cholesterol (Sigma Chemical, St. Louis, Mo.) were mixed in a 93:7 molar ratio in chloroform and dried under nitrogen followed by drying in vacuo overnight. This mixture resembles the lipid content of mammalian mitochondrial outer membranes. Five mg of this mixture were dispersed in 1 mL of 39 mM NaCl, 6 mM DPX (Molecular Probes, Eugene, Oreg.), 1.5 mM carboxyfluorescein (Acros Organics, Geel, Belgium) and subjected to four freeze-thaw/sonication cycles. After extrusion through a 0.2 μm filter (Avanti Polar Lipids) for 13 passes it was run through a gel filtration column equilibrated and eluted with 50 mM NaCl, 10 mM HEPES, 1 mM EDTA, pH 7.0. The liposomes were used within 30 h. Twenty-five microliters of liposomes were dispersed into 2.0 mL of the elution buffer and placed into a quartz fluorescence cuvette. The fluorescence was monitored using a Deltascan Spectrofluorometer (Photon Technology Instruments, West Sussex, UK) using excitation at 495 nm and emission at 520 nm. Forty microliters of C16-ceramide (2 mg/mL of isopropanol) were added while stirring. Sphingosine was added from either a 1 mg/mL or a 0.1 mg/mL solution in DMSO."}}, "data": [{"smiles": "CCCCCCCCCCCCC/C=C/[C@@H](O)[C@@H](N)CO", "note": "[sphingosine]", "values": [{"measurement": "time at which conductance reached a minimum", "setting": "[1]; C2-ceramide 3 μg/mL, sphingosine 8 μg/mL at t=0, KCl gradient", "value": 20, "unit": "min"}, {"measurement": "time over which membrane conductance decreased after addition", "setting": "[1]; C2-ceramide channel (9 μg/mL), sphingosine 4 μg/mL cis side, 10 mV", "value": "15 to 20", "unit": "min"}, {"measurement": "effect on formed ceramide channel", "setting": "[1]; C2-ceramide channel, sphingosine 4 μg/mL, conductance reached level of unmodified membrane", "value": "completely disassembled"}, {"measurement": "release of cytochrome c from isolated mitochondria", "setting": "[2]", "value": "≤ 15", "unit": "%"}, {"measurement": "effect of pretreatment on C16-ceramide-induced carboxyfluorescein release from liposomes", "setting": "[3]", "value": "biphasic enhancement"}]}]}
